Reference: patent publication US20060269935A1, “Genetic predictor for clinical use of drugs used in the treatment of neurological conditions” (UCL Biomedica PLC, priority 2005, published 2006)
Read-outs that look alike come from different tables or passages of the source.

How the values were obtained:
[1] = system: patients with a diagnosis of epilepsy; conditions: human, in vivo
Text: In this study we have considered the known functional alleles *2 and *3 at the CYP2C9 gene, and the putatively functional 3435C>T polymorphism in the ABCB1 gene. As no common functional variants are known for SCN1A, we used a haplotype tagging strategy (Weale et al., Am J. Hum. Genet. 73, 551-565, 2003). […] For carbamazepine, we related variation in both SCN1A and ABCB1 to maximum dose in 425 patients. Finally, we tested for association with presence or absence of ADRs. […] In most, but not all cases the maximum dose used here will also be the maintenance dose, since starting doses tend to be lower than what is required (see discussion below).
The study was approved by the relevant institutional Ethics Committees. Patients who self-identified, or were determined by the treating physician, as being of North Western European origin with a diagnosis of epilepsy were recruited from the specialised epilepsy clinic of the National Hospital for Neurology and Neurosurgery after written informed consent was obtained. Extensive clinical data were obtained and stored in a computerized database. […]
The following clinical details were recorded whenever available: date when phenytoin/carbamazepine was started and stopped, maximum dosage reached, response and occurrence of ADRs. […]

CYP2C9 = CYP2C9 (Homo sapiens, UniProt P11712); conditions: estimated; cited from earlier work
[2] = cited from earlier work; for Serum concentrations of phenytoin: single dose, healthy volunteers
CYP2C9*2 = CYP2C9*2 (Homo sapiens, UniProt P11712, R144C); conditions: in vitro expression; cited from earlier work

Average dose range across genotypes [1] [mg]	Compound	Share of phenytoin inactivation for which CYP2C9 is responsible (CYP2C9)	Serum concentrations of phenytoin ([2]; *2 carriers)	Maximal elimination rates ([2]; *3 carriers compared with *1/1 patients)	Serum concentrations of phenytoin ([2]; *3 carriers)	Reduction in phenytoin clearance compared to *1 (CYP2C9*2) [% reduction in]
230	NC(=O)N1c2ccccc2C=Cc2ccccc21 [carbamazepine, 5H-dibenz[b,f]azepine-5-carboxamide]					
127	O=C1NC(=O)C(c2ccccc2)(c2ccccc2)N1 [phenytoin, 5,5-diphenylhydantoin]	up to 90%	*2 carriers have increased serum	*3 carriers have significantly lower	patients(33, 34) and increased serum	29
